Non-standard residues stand in square brackets, D forms with d. No end group written: not given here. pS = N[C@@H](COP(=O)(O)O)C(=O)O
Test system: phosphopeptide-specific CTL
Experiment: Recognition of naturally processed phosphopeptides on cancer cell lines by phosphopeptide-specific CTL (murine IFNγ ELISA)
Format: cell-based
Details: 24 hours with COV413.AAD.A4, DM331.AAD.A4, SLM2.AAD.A1, MCF7.AAD.A2, MDAMB231.AAD cancer lines and JY EBV-BLCL control
Description: FIG. 1, comprising FIGS. 1A and 1B, is a graphic illustration of the recognition of naturally processed and presented phosphorylated peptides on cancer cells by the phosphopeptide-specific CTL. Phosphopeptide-specific CTL were incubated with the following cancer cell lines or EBV-transformed B lymphoblastoid cell lines (BLCL): COV413.AAD.A4 ovarian carcinoma, DM331.AAD.A4 and SLM2.AAD.A1 melanomas, MCF7.AAD.A2 and MDAMB231.AAD breast carcinomas, and JY EBV-BLCL. Supernatants were harvested and evaluated for the presence of murine IFNγ (produced by murine CTL lines). […] The ordinate indicates murine IFNγ in pg/ml. The abscissa indicates each cell line.
CTL specific for two of the antigen peptides were generated by long term culture with the peptides. Two CTL lines specific for the antigen peptide GLLGpSPVRA, lines 6850 and 6960, SEQ ID NO: 13, and two CTL lines specific for the antigen peptide RVApSPTSGV, SEQ ID NO: 14, lines 5183 and 63 were used to detect these two antigen peptides on cancer cells. […] Supernatants were harvested 24 hours later and evaluated for the presence of murine IFN[…] (produced by murine CTL lines) by ELISA (eBioscience Ready-Set-go murine IFN[…] ELISA kit).

For “GLLGpSPVRA (GLLG[pS]PVRA; listed as Homo sapiens) [phosphopeptide from CDC25b:p63, HLA-A2.1]”, which “recognition of the phosphopeptide on cell lines by phosphopeptide-specific CTL (murine IFNγ in supernatant)” value (CTL lines 6850 and 6960, FIG. 1A) is on record?
The value was “recognize the phosphopeptide on all the cancer cell lines, but not the control cell line”.

For “RVApSPTSGV (RVA[pS]PTSGV; listed as Homo sapiens) [phosphopeptide from Insulin receptor substrate-2, HLA-A2.1]”, which “recognition of the phosphopeptide on cell lines by phosphopeptide-specific CTL (murine IFNγ in supernatant)” value (CTL lines 5183 and 63, FIG. 1B) is on record?
The value was “recognize the phosphopeptide on all the cancer cell lines, but not the control cell line”.

Source: patent publication US10640535B2, “Identification of MHC class I phospho-peptide antigens from breast cancer utilizing SHLA technology and complementary enrichment strategies” (Agenus Inc., priority 2012, dated 2020)
